Toxic doses and inconclusive results are not listed.
System: L1210 leukemia ip in BDF1 mice, survival T/C
Test: NCI In Vivo Anticancer Drug Screen. Data for tumor model L1210 Leukemia (intraperitoneal) in B6D2F1 (BDF1) mice
Details: endpoint: mean survival time, higher = longer survival
Summary of the method: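 Ratio derived from survival: compound-dosed mice over vehicle-dosed mice, all bearing a transplantable tumor.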

[1] = dose: 100.0 mg/kg/injection, schedule: Q01DX001 (ip), vehicle: saline
[2] = dose: 100.0 mg/kg/injection, schedule: Q01DX009 (ip), vehicle: Klucel (hydroxypropylcellulose) (HPC)
[3] = dose: 200.0 mg/kg/injection, schedule: Q01DX009 (ip), vehicle: Klucel (hydroxypropylcellulose) (HPC)
[4] = dose: 400.0 mg/kg/injection, schedule: Q01DX009 (ip), vehicle: Klucel (hydroxypropylcellulose) (HPC)
[5] = dose: 100.0 mg/kg/injection, schedule: Q04DX002 (ip), vehicle: Klucel (hydroxypropylcellulose) (HPC)
[6] = dose: 200.0 mg/kg/injection, schedule: Q04DX002 (ip), vehicle: Klucel (hydroxypropylcellulose) (HPC)
[7] = dose: 400.0 mg/kg/injection, schedule: Q04DX002 (ip), vehicle: Klucel (hydroxypropylcellulose) (HPC)

COC(=O)c1cccn1C(=O)c1ccccc1[N+](=O)[O-]
T/C (dose: 50.0 mg/kg/injection, schedule: Q04DX002 (ip), vehicle: other): 105 % of control
T/C (dose: 100.0 mg/kg/injection, schedule: Q04DX002 (ip), vehicle: other): 97 % of control
T/C (dose: 200.0 mg/kg/injection, schedule: Q04DX002 (ip), vehicle: other): 94 % of control

O=C(O)c1cc([N+](=O)[O-])ccc1P(=O)(O)O
T/C (dose: 75.0 mg/kg/injection, schedule: Q01DX001 (ip), vehicle: saline): 93 % of control
T/C (dose: 150.0 mg/kg/injection, schedule: Q01DX001 (ip), vehicle: saline): 95 % of control

COC(=O)C[N+]1(C)C2CCC1CC(Cl)C2 (centres undefined)
T/C [1]: 101 % of control

CCC(=O)OC1(c2ccccc2)CCN(CCNc2ccccc2)CC1
T/C (dose: 20.0 mg/kg/injection, schedule: Q04DX003 (ip), vehicle: Klucel (hydroxypropylcellulose) (HPC)): 100 % of control
T/C (dose: 40.0 mg/kg/injection, schedule: Q04DX003 (ip), vehicle: Klucel (hydroxypropylcellulose) (HPC)): 103 % of control
T/C (dose: 80.0 mg/kg/injection, schedule: Q04DX003 (ip), vehicle: Klucel (hydroxypropylcellulose) (HPC)): 105 % of control

O=C(/C=N\O)c1ccncc1
T/C [2]: 100 % of control
T/C [3]: 94 % of control

CC(C(O)c1ccccc1)[N+](=O)[O-] (centres undefined)
T/C (dose: 100.0 mg/kg/injection, schedule: Q04DX003 (ip), vehicle: saline with Tween-80): 100 % of control
T/C (dose: 200.0 mg/kg/injection, schedule: Q04DX003 (ip), vehicle: saline with Tween-80): 95 % of control
T/C (dose: 400.0 mg/kg/injection, schedule: Q04DX003 (ip), vehicle: saline with Tween-80): 101 % of control

Cc1cc(O)c(N=Nc2ccccc2)cc1C
T/C [2]: 102 % of control
T/C (dose: 100.0 mg/kg/injection, schedule: Q04DX003 (ip), vehicle: Klucel (hydroxypropylcellulose) (HPC)): 101 % of control
T/C [3]: 96 % of control
T/C (dose: 200.0 mg/kg/injection, schedule: Q04DX003 (ip), vehicle: Klucel (hydroxypropylcellulose) (HPC)): 96 % of control
T/C [4]: 96 % of control
T/C (dose: 400.0 mg/kg/injection, schedule: Q04DX003 (ip), vehicle: Klucel (hydroxypropylcellulose) (HPC)): 92 % of control

CCc1ccccc1NC(=S)NC1CCCCC1
T/C [2]: 92 % of control
T/C [3]: 101 % of control

CC1CCN(C(=O)NCCCCCCNC(=O)N2CCC(C)CC2)CC1
T/C [2]: 100 % of control
T/C [3]: 97 % of control
T/C [4]: 90 % of control

CCN(CC)C(N)=Nc1ccc(NC(=O)c2ccc(C(=O)Nc3ccc(N=C(N)N(CC)CC)cc3)cc2)cc1
T/C (dose: 1.8 mg/kg/injection, schedule: Q01DX Z (ip), vehicle: water): 113 % of control
T/C (dose: 6.5 mg/kg/injection, schedule: Q01DX Z (ip), vehicle: water): 180 % of control
T/C (dose: 50.0 mg/kg/injection, schedule: Q01DX Z (oral), vehicle: water): 101 % of control
T/C (dose: 200.0 mg/kg/injection, schedule: Q01DX Z (oral), vehicle: water): 107 % of control
T/C (dose: 400.0 mg/kg/injection, schedule: Q01DX Z (oral), vehicle: water): 93 % of control

Cc1cc(=O)oc2c(OC(=O)N(CCCl)CCCl)c(OC(=O)N(CCCl)CCCl)ccc12
T/C (dose: 25.0 mg/kg/injection, schedule: Q04DX002 (ip), vehicle: Klucel (hydroxypropylcellulose) (HPC)): 90 % of control
T/C (dose: 50.0 mg/kg/injection, schedule: Q04DX002 (ip), vehicle: Klucel (hydroxypropylcellulose) (HPC)): 94 % of control
T/C [5]: 97 % of control
T/C [6]: 90 % of control
T/C [7]: 103 % of control

O=C(NNC(=S)Nc1ccccc1Cl)c1ccncc1
T/C (dose: 75.0 mg/kg/injection, schedule: Q01DX009 (ip), vehicle: Klucel (hydroxypropylcellulose) (HPC)): 93 % of control
T/C (dose: 150.0 mg/kg/injection, schedule: Q01DX009 (ip), vehicle: Klucel (hydroxypropylcellulose) (HPC)): 97 % of control
T/C (dose: 300.0 mg/kg/injection, schedule: Q01DX009 (ip), vehicle: Klucel (hydroxypropylcellulose) (HPC)): 101 % of control

COc1cccc(NC(=O)c2cccc([N+](=O)[O-])c2)c1
T/C [5]: 94 % of control
T/C [6]: 98 % of control
T/C [7]: 91 % of control

CC(C)=CCOc1ccc(C(=O)O)cc1
T/C [1]: 100 % of control
T/C (dose: 200.0 mg/kg/injection, schedule: Q01DX001 (ip), vehicle: saline): 116 % of control
T/C (dose: 400.0 mg/kg/injection, schedule: Q01DX001 (ip), vehicle: saline): 107 % of control

Source: PubChem BioAssay AID248 (DTP/NCI, 2004)
